Source: article PMC7290365, “Human Induced Pluripotent Stem Cell-Derived 3D-Neurospheres Are Suitable for Neurotoxicity Screening” (Cells, 2020)
Counter-ions that a name gives are not always drawn. Like-named read-outs stand apart in the source and are kept apart here.

Key:
[1] = test system: hiPSC-derived 3D neurospheres; assay: cells; assay type: cell-based, human; conditions: for EC10 / EC25 / EC50: Homo sapiens, 72 h; for Effect on cell viability (in words): D21, D28, D42 neurospheres
Description: After thawing, NSCs (generated as detailed above) were cultured on POL/L (0.002%/1 µg/cm^2) coated plates (50,000 cells/cm^2). When reached 100% confluence NSCs were propagated with Accutase treatment and single-cell suspension was plated onto a low-adherent 96-well plate with 10,000 cells/well in NMM medium. […] Samples were collected at Day 0 (D0), Day 2 (D2), and weekly intervals from the end of the 1st week (D7) until the end of the 6th week (D14, D21, D28, D35, and D42).
Eleven well-known compounds were tested in 7 different concentrations to generate concentration-response curves. The tested compounds with the used concentrations are detailed in Table S3. […] In each assay plate, 4 technical replicates were applied from each sample and 3 biological replicate assays were run (n = 3). The 3D cell cultures were exposed to the toxicants for 72 h (exposure schemes are detailed in Figure 5A or Figure 6A or Figure 7A). Vehicle control was used as a regular medium supplemented with 0.1% DMSO.
ATP viability assay was performed with CellTiter-Glo® 3D Cell Viability Assay, according to the manufacturer’s protocol (Promega). Neurospheres were lysed with 100 μL CellTiter-Glo® 3D Reagent for 60 min at RT. Luminescence signal was recorded with a Thermo VarioScan Flash (Thermo Fisher Scientific) plate reader.
All results were analyzed using Prism 5 (GraphPad Software, La Jolla, CA, USA) and handled in Microsoft Office 2010 (Microsoft, Redmond, WA, USA) software. For normalization of the concentration response, the average values of positive control were used as 0% and the average of vehicle control served as 100%. Four parameter curve fitting methods were used to determine EC10 and EC50 values, where the data on the graphs represent the average of three biological replicates. The “n” value corresponds to the number of biological replicates for each tested concentration. Analysis of data is presented as the mean ± SEM. Significance of data was determined with paired T test for RT-qPCR (* p < 0.01) and with One-way ANOVA for concentration response (* p < 0.05; ** p < 0.01).

[2] = test system: in vitro multicellular cytotoxicity; conditions: multicellular cytotoxicity "comptox" data; ref EPA's Chemical dashboard (https://comptox.epa.gov/dashboard); cited from earlier work
humans = conditions: ref PubChem database (https://pubchem.ncbi.nlm.nih.gov/), cited from earlier work
rat = test system: rat; parameters: method as in PubChem database (https://pubchem.ncbi.nlm.nih.gov/); conditions: ref PubChem database (https://pubchem.ncbi.nlm.nih.gov/), cited from earlier work
XBP1(S) = assay: XBP1 assay of endoplasmic reticulum stress; assay type: cell-based, human; conditions: listed as ROT
Description: Upon accumulation of unfolded proteins in the endoplasmic reticulum (ER), a 26-nucleotide fragment from the X-box binding protein 1 mRNA (XBP1(U)) is removed with a special splicing mechanism. This shorter mRNA (XBP1(S)) is a frequently used marker of ER-stress. To study the expression of XBP1(S), previously described primers and our own primers were used (Table S2). As a positive control, cells were treated with 5 µM and 10 µM Tunicamycin to induce ER-stress. RT-PCR reactions were performed and analyzed as above, using Phusion Hot Start II High-Fidelity DNA Polymerase and 20 ng of the cDNA samples.

LUHMES cells [3] = conditions: cited from earlier work
[4] = test system: hiPSC-derived 3D neurospheres; assay: TUNEL apoptosis assay on cryosectioned 3D neurospheres; assay type: cell-based, human; conditions: 0.5 µM for 72 h; average, in each stage (D21, D28, D42)
Description: Embedding and cryosectioning of 3D samples were performed as above. To detect apoptotic activity, the DeadEnd™ Colorimetric TUNEL System (Promega) was used on the middle cryosections (highest diameter) of the spheroids, following the instructions of the manufacturer. In brief, apoptosis was detected by immersing the slides in PBS for 5 min (at RT), adding 20 μg/mL Proteinase K solution and incubating for 10–30 min (at RT). After 5–10 min treatment in Equilibration buffer, recombinant terminal deoxynucleotidyl transferase (rTdT) was added to the reaction mixture. Next, the sections were incubated for 60 min at 37 °C inside of a humidified chamber to allow the end-labelling reaction to occur. The reaction was terminated by immersing the slides in saline-sodium citrate for 15 min (RT). Endogenous peroxidases were blocked by immersing the slides in 0.3% hydrogen peroxide in PBS for 3–5 min (RT). Streptavidin-HRP was added to slides, incubated for 30 min (RT), stained with diaminobenzidine (DAB) solution for 5 min until a light brown background appeared. For hematoxylin–eosin (HE) staining Mayer’s Hematoxylin solution was used for 3 min. […] Five Ctrl and five ROT-treated spheroids were randomly selected, and middle sections were analyzed from each differentiation stage (D21, D28, and D42) samples in three experiments (n = 3).

LUHMES cells [5] = conditions: LUHMES cells exposed; literature value, reference not given; cited from earlier work
[6] = D21 stage, 72 h exposure, investigated concentration range
[7] = read-out: EC10 (cell viability), D21 3D neurospheres, 72 h exposure
[8] = read-out: EC10 (cell viability), D42 3D neurospheres, 72 h exposure
[9] = read-out: EC25 (cell viability), D21 3D neurospheres, 72 h exposure
[10] = read-out: EC25 (cell viability), D28 3D neurospheres, 72 h exposure
[11] = read-out: EC25 (cell viability), D42 3D neurospheres, 72 h exposure
[12] = D21 3D neurospheres, 72 h exposure, read-out: EC10 (cell viability) (converted)
[13] = D21 3D neurospheres, 72 h exposure, read-out: EC25 (cell viability) (converted)
[14] = D21 3D neurospheres, 72 h exposure, read-out: EC50 (cell viability) (converted)
[15] = D28 3D neurospheres, 72 h exposure, read-out: EC10 (cell viability) (converted)
[16] = D28 3D neurospheres, 72 h exposure, read-out: EC25 (cell viability) (converted)
[17] = D28 3D neurospheres, 72 h exposure, read-out: EC50 (cell viability) (converted)
[18] = D42 3D neurospheres, 72 h exposure, read-out: EC10 (cell viability) (converted)
[19] = D42 3D neurospheres, 72 h exposure, read-out: EC25 (cell viability) (converted)
[20] = D42 3D neurospheres, 72 h exposure, read-out: EC50 (cell viability) (converted)
[21] = D21 3D neurospheres, 72 h exposure
[22] = investigated concentration range
[23] = D28 3D neurospheres, 72 h exposure
[24] = D42 3D neurospheres, 72 h exposure
[25] = read-out: EC10 (cell viability)
[26] = read-out: EC25 (cell viability)
[27] = read-out: EC50 (cell viability)

SMILES	Effect on viability of 3D neurospheres (in words) [1, 6]	In vitro cytotoxicity limit [2] [µM]	EC10 [1, 12] [µM]	EC25 [1, 13] [µM]	EC50 [1, 14] [µM]	EC10 [1, 15] [µM]	EC25 [1, 16] [µM]	EC50 [1, 17] [µM]	EC10 [1, 18] [µM]	EC25 [1, 19] [µM]	EC50 [1, 20] [µM]	also measured
C=CC(N)=O [Acrylamide, 2-Propenamide]												EC10 (cell viability) [1]: > 3.5 log µM; EC25 (cell viability) [1]: > 3.5 log µM
COc1cc2c(c(OC)c1OC)-c1ccc(OC)c(=O)cc1[C@@H](NC(C)=O)CC2 [Colchicine, (S)-N-(5,6,7,9-Tetrahydro-1,2,3,10-tetramethoxy-9-oxobenzo[a]heptalen-7-yl)acetamide]	had a strong effect on the viability, but did not kill all the cells	0.02										EC10 [1, 7]: 0.000257 µM; EC10 [1, 8]: 0.000282 µM; EC25 [1, 9]: 0.00912 µM; EC25 [1, 10]: 0.0129 µM; EC25 [1, 11]: 0.00575 µM; Probable oral lethal dose in humans (humans; oral): < 5 mg/kg
COc1cccc2c1C(=O)c1c(O)c3c(c(O)c1C2=O)C[C@@](O)(C(=O)CO)C[C@@H]3O[C@H]1C[C@H](N)[C@H](O)[C@H](C)O1 [Doxorubicin, Doxorubicin hydrochloride]	caused maximum cell death		0.263	1.1	4.68	2.14	5.25	12.9	3.09	7.94	20.9	LD50 (rat; subcutaneous): • - Intercalating chemotherapy drug; • - inhibiting the movement of topoisomerase II, which leads to the blocking of both replication and transcription; and • - LD50: 21.8 mg/kg (rat, subcutaneous).
Oc1c(Cl)cc(Cl)c(Cl)c1Cc1c(O)c(Cl)cc(Cl)c1Cl [Hexachlorophene, 2,2′-Methylenebis(3,4,6-trichlorophenol)]	had a strong effect on the viability, but did not kill all the cells	1.86	0.631	3.39	18.2	0.257	1.62	10.2	0.0661	0.457	3.16	LD50 (rat; oral): 66 mg/kg
CC(C)Cc1ccc(C(C)C(=O)O)cc1 (stereo not drawn) [Ibuprofen, α-Methyl-4-(isobutyl)phenylacetic acid]	did not decrease the viability		> 100	> 100	> 100	> 100	> 100	> 100	> 100	> 100	> 100	EC50 (cell viability) [1, 21]: > 2 log µM; Effect on cell viability (in words) [1, 22]: no effect on neuronal cell viability; Consumed dose at which overdose symptoms appear (humans; individuals): > 99 mg/kg
[Cl][Hg][Cl] [Mercury(II) chloride]	caused maximum cell death	1.37										EC10 (cell viability) [1, 21]: 1.1 log µM; EC25 (cell viability) [1, 21]: 1.5 log µM; EC50 (cell viability) [1, 21]: 1.87 log µM; EC10 (cell viability) [1, 23]: 1.4 log µM; EC25 (cell viability) [1, 23]: 1.60 log µM; EC50 (cell viability) [1, 23]: 1.83 log µM; EC10 (cell viability) [1, 24]: 1.34 log µM; EC25 (cell viability) [1, 24]: 1.54 log µM; EC50 (cell viability) [1, 24]: 1.74 log µM; Probable oral lethal dose in humans (humans; oral): 5 to 50 mg/kg
CC(=O)Nc1ccc(O)cc1 [Paracetamol, 4′-Hydroxyacetanilide]												LD50 (rat; oral): 2400 mg/kg; EC50 (cell viability) [1]: > 2 log µM; Effect on viability of 3D neurospheres (in words) [1]: minimal effect on the viability; EC10 [1, 25]: > 100 µM; EC25 [1, 26]: > 100 µM; EC50 [1, 27]: > 100 µM; Acute overdose at which hepatic toxicity occurred in humans (humans): > 10 g
C[n+]1ccc(-c2cc[n+](C)cc2)cc1 [Paraquat, 1,1′-Dimethyl-4,4′-bipyridinium dichloride hydrate]	caused maximum cell death		14.1	33.1	77.6	22.4	46.8	95.5	12.3	27.5	61.7	Probable oral lethal dose in humans (humans; oral): • - Herbicide; • - neurotoxic: occupational exposures leading to Parkinson’s disease [74]; • - widely investigated neurotoxic mechanism [75, 76]; and • - probable oral lethal dose in humans is 35 mg/kg.
CO[C@H]1/C=C/O[C@@]2(C)Oc3c(C)c(O)c4c(O)c(c(/C=N/N5CCN(C)CC5)c(O)c4c3C2=O)NC(=O)/C(C)=C\C=C\[C@H](C)[C@H](O)[C@@H](C)[C@@H](O)[C@@H](C)[C@H](OC(C)=O)[C@@H]1C [Rifampicin, 3-(4-Methylpiperazinyliminomethyl)rifamycin]												LD50 (rat; route not given): 1570 mg/kg; EC50 (cell viability) [1]: > 2 log µM; Effect on viability of 3D neurospheres (in words) [1]: reduced the viability; EC10 [1, 25]: > 100 µM; EC25 [1, 26]: > 100 µM; EC50 [1, 27]: > 100 µM; Probable lethal oral dose in humans (humans; oral): 14 to 60 g
C=C(C)[C@H]1Cc2c(ccc3c2O[C@@H]2COc4cc(OC)c(OC)cc4[C@@H]2C3=O)O1 [Rotenone]		0.22										ER-stress inducing effect (XBP1 assay) (XBP1(S)): no ER-stress inducing effect; Neurite outgrowth of LUHMES cells (in words) (LUHMES cells [3]): prominent neurite growth inhibition; EC10 [1, 7]: 0.0129 µM; EC10 ([1]; read-out: EC10 (cell viability), D28 3D neurospheres, 72 h exposure): 0.00646 µM; EC10 [1, 8]: 0.00447 µM; EC25 [1, 9]: 0.0562 µM; EC25 [1, 10]: 0.0347 µM; EC25 [1, 11]: 0.0331 µM; EC50 ([1]; read-out: EC50 (cell viability), D21 3D neurospheres, 72 h exposure): 0.245 µM; EC50 ([1]; read-out: EC50 (cell viability), D28 3D neurospheres, 72 h exposure): 0.182 µM; EC50 ([1]; read-out: EC50 (cell viability), D42 3D neurospheres, 72 h exposure): 0.24 µM; Probable lethal dose in human (humans): 300 to 500 mg/kg; Increase in the apoptotic cell number compared to the control [4]: 15%
CCCC(CCC)C(=O)O [Valproic acid, 2-Propylpentanoic acid]	minimal effect on the viability		> 398	> 398	> 398	> 398	> 398	> 398	> 398	> 398	> 398	Neurite outgrowth of LUHMES cells (in words) (LUHMES cells [3]): significant inhibition of neurite outgrowth; EC50 (cell viability) [1, 21]: > 2.6 log µM; Effect on cell viability (in words) [1, 22]: no detectable impact; EC50 (LUHMES cells [5]): > 100 µM
